Assay results reported in patent US10724099B2, “Multiplex methods to assay mixed cell populations simultaneously” (The Broad Institute, Inc., priority 2012, dated 2020).

Key:
HCT-116 cells [1] = assay: Western blot phosphoserine 10-histone H3; format: cell-based; details: 10 μM
Description: Finally, HCT-116 cells were treated with 10 μM of DMSO, barasertib, GSK1070916, MLN8054, BRD-7880, or tozasertib. Cells lysates were probed on Western blot using antibodies (diluted 1:1000) to histone H3 (Abcam cat. no. 24834), phosphoserine 10-histone H3 (Cell Signaling Technology cat no. 3377SS), aurora kinase B (Millipore cat. no. 04-1036), or beta-actin (Santa Cruz Biotechnology cat. no. sc-47778) and detected using a LI-COR Odyssey analyzer.

HCT-116 cells [2] = assay: DNA content by propidium iodide flow cytometry; format: cell-based; details: 10 μM, 24 hours or 48 hours
Description: In addition, HCT-116 cells were treated with 10 μM of DMSO, or the Aurora Kinase Inhibitors barasertib, GSK1070916, MLN8054, BRD-7880, or tozasertib. 24 hours or 48 hours following treatment, cells were stained with propidium iodide and DNA content per cell was assessed using a Becton Dickinson LSR II flow cytometer.

[3] = test system: 25 barcoded lung adenocarcinoma cell lines; assay: PRISM, mixture of 25 barcoded lung adenocarcinoma cell lines; format: cell-based, human; details: for viability relative to DMSO-treated control (relative inhibition profile): cell lines in mixture, 0-10 μM (puromycin 0-10 μg/ml), day 5
Description: PRISM detection was performed as follows. Genomic DNA from cell lysates was amplified by PCR using primers Biotin pLENTR4 (5′-Biotin-[…]-3′; SEQ ID NO:3) and pLENTF1 (5′-[…]-[…]-3′; SEQ ID NO:4). PCR product was hybridized to Luminex beads with covalently attached antisense barcodes, and streptavidin-phycoerythrin addition, washing, and detection on Luminex FlexMap machines was performed as previously described (Peck et al., Genome Biol 7, R61 (2006)). PCR without genomic DNA was hybridized with beads to serve as background control; signal for each bead was subtracted from each sample measurement. DMSO-treated cell mixtures were used as reference control for scaling of each cell line signal at the conclusion of each experiment (viability=100 for each cell line).
These lines were barcoded as described above, and equal numbers of cells of each cell lines were mixed together. Cell mixtures were plated in 384-well plates on day −1. On day 0, mixtures were challenged with compounds or vehicle, and on day 5 genomic DNA was harvested and barcodes quantitated. Barcode signal background was determined using beads hybridizing to PCR reactions lacking genomic DNA templates and was subtracted from all measurements. To account for different doubling times of cell lines and different baseline signals for each cell line, the barcode signal for each cell line was scaled to the signal of the vehicle-treated control at the end of the experiment (PRISM schema shown in FIG. 1A), so that the relative growth inhibition of each cell line was assessed.

308 kinases = assay: Kinase activity profiling, Millipore KinaseProfiler; format: biochemical
[4] = test system: 100 human cancer cell lines; assay: PRISM, 100 barcoded cancer cell lines in mixture; format: cell-based; details: for reduction in cell viability in BRAF V600E mutant lines compared to BRAF wild-type lines: mixture, day 5
Description: PRISM detection was performed as follows. Genomic DNA from cell lysates was amplified by PCR using primers Biotin pLENTR4 (5′-Biotin-[sequence]-3′; SEQ ID NO:3) and pLENTF1 (5′-[sequence]-[sequence]-3′; SEQ ID NO:4). […] PCR without genomic DNA was hybridized with beads to serve as background control; signal for each bead was subtracted from each sample measurement. DMSO-treated cell mixtures were used as reference control for scaling of each cell line signal at the conclusion of each experiment (viability=100 for each cell line).
To investigate cancer vulnerabilities that are common in multiple cancer types and to examine the extent to which assaying cells in mixture may be complicated by cell-cell interactions, a panel of 100 barcoded cell lines was created comprising 18 different cancer types, and these were challenged in mixture with each of 43 anticancer compounds (including both targeted and general cytotoxic agents) in 8-point dose response. Each compound was represented by 3,200 functional measurements (100 cell lines×8 doses×4 replicates). The assays were performed as follows. Frozen mixtures of barcoded cell lines were thawed (day −2) and replated (day −1) into 384-well microtiter plates. On day 0, compounds suspended in DMSO were pinned into cultures to achieve final concentrations of 0.0012, 0.0049, 0.019, 0.078, 0.3125, 1.25, 5, or 20 μg ml-1. On day 5, cells were washed with phosphate-buffered saline and lysed for 60 minutes at 60° C. in 20 mM Tris-HCl (pH 8.4), 50 mM KCl, 0.45% IGEPAL CA-630 (Sigma cat. 18896), 0.45% Tween-20 (Sigma cat. P9416), and 10% proteinase K (Qiagen cat. 19133). Proteinase K was inactivated by a 15-minute incubation at 95° C.

[5] = test system: 100 human cancer cell lines; assay: CTG (CellTiterGlo ATP), 100 cell lines grown individually; format: cell-based; details: for reduction in cell viability in BRAF V600E mutant lines compared to BRAF wild-type lines: CTG (ATP), individual lines, day 3
Excerpt: (§1) To quantitatively compare the 100-cell line PRISM performance to traditional methods, PRISM was compared to the activity of 23 compounds across the same 100 cell lines grown individually, as recently reported (using either ATP content measurements using the CellTiterGlo (CTG), or direct enumeration of cell nuclei using an optical fluorescent imaging method (PerkinElmer Opera system (hereafter, OPTICAL)) and thus served as a gold standard against which PRISM could be compared (Barretina et al., Nature 483, 603 (Mar. 29, 2012)). The same parental cell lines were used in all three methods; in the PRISM method, a barcoded “daughter” line was generated from the common parental cell line. Compounds used in assays were replica-plated from the same source. The cell lines grown individually were assayed at day 3 following compound treatment, whereas the 100-cell line PRISM mixture was analyzed at day 5.
(§2) To compare the three methods for measuring cell viability, the AUC (Area Under the Curve, measured from the viability vs. logarithm of drug concentration curve) was calculated for each combination of compound and cell line and for each viability measurement method. The CTG and OPTICAL methods were generally correlated with Pearson R=0.801. CTG and PRISM correlated with R=0.663, and OPTICAL and PRISM correlated with R=0.720. […] To investigate whether particular cell lines or specific compounds were disproportionately responsible for divergent predictive results between PRISM and the other methods, we examined the ratio between […] or […]. […] In these rare cases, either the different assay conditions (5-day assay with PRISM, 3-day assay with OPTICAL and CTG) or the assay of cells in mixture might explain the discrepancy. Overall, however, PRISM appears to perform comparably to these other methods in global determinations of sensitivity to compounds in these 100 cell lines.

[6] = test system: 100 human cancer cell lines; assay: OPTICAL (Opera enumeration of nuclei), 100 cell lines grown individually; format: cell-based; details: for reduction in cell viability in BRAF V600E mutant lines compared to BRAF wild-type lines: OPTICAL (Nuclei), individual lines, day 3
Excerpt: as §1, §2

[7] = test system: 24 barcoded human lung adenocarcinoma cell lines; assay: In vivo PRISM, xenograft of 24 barcoded lung adenocarcinoma cell lines in NSG mice; details: 50 mg/kg once daily by gavage for 16 days, vs vehicle
Description: The tumors were than resected, and the abundance of each cell line measured by PRISM.

SMILES	phosphorylation of serine 10 on histone H3 (HCT-116 cells [1])	DNA content per cell (HCT-116 cells [2])	viability relative to DMSO-treated control (relative inhibition profile) [3]	reduction in cell viability in BRAF V600E mutant lines compared to BRAF wild-type lines [4]	reduction in cell viability in BRAF V600E mutant lines compared to BRAF wild-type lines [5]	reduction in cell viability in BRAF V600E mutant lines compared to BRAF wild-type lines [6]	further results
CCn1cc(-c2ccnc3[nH]c(-c4cccc(CN(C)C)c4)cc23)c(-c2ccc(NC(=O)N(C)C)cc2)n1 [GSK1070916]	decrease phosphorylation of serine 10 on histone H3	increased DNA content	–	–	–	–	–
COc1cc(N2CCC(N3CCN(C)CC3)CC2)ccc1Nc1ncc(Cl)c(Nc2ccccc2S(=O)(=O)C(C)C)n1 [NVP-TAE-684]	–	–	selective killing was observed of H3122, but not H2228	–	–	–	–
Cc1cc(Nc2cc(N3CCN(C)CC3)nc(Sc3ccc(NC(=O)C4CC4)cc3)n2)[nH]n1 [tozasertib]	decrease phosphorylation of serine 10 on histone H3	increased DNA content	–	–	–	–	significant inhibition (defined as activity<25% control) across 308 kinases (308 kinases): inhibited aurora kinases A, B, and C, in addition to several other kinases
O=C(O)c1ccc(Nc2ncc3c(n2)-c2ccc(Cl)cc2C(c2c(F)cccc2F)=NC3)cc1 [MLN8054]	decrease phosphorylation of serine 10 on histone H3	increased DNA content	–	–	–	–	–
CNC(=O)c1cc(Oc2ccc(NC(=O)Nc3ccc(Cl)c(C(F)(F)F)c3)cc2)ccn1 [sorafenib]	–	–	–	did not demonstrate significant reductions	did not demonstrate significant reductions	did not demonstrate significant reductions	–
Cn1c(Nc2ccc(C(F)(F)F)cc2)nc2cc(Oc3ccnc(-c4ncc(C(F)(F)F)[nH]4)c3)ccc21 [RAF-265]	–	–	–	a similar reduction was seen only with PRISM	–	–	–
Cn1cnc2c(F)c(Nc3ccc(Br)cc3Cl)c(C(=O)NOCCO)cc21 [AZD6244]	–	–	–	only a trend towards this reduction	significant reduction	only a trend towards this reduction	–
CCCS(=O)(=O)Nc1ccc(F)c(C(=O)c2c[nH]c3ncc(Cl)cc23)c1F [PLX4720]	–	–	–	significant (two-tailed t-test, p<0.05) reductions in cell viability	significant (two-tailed t-test, p<0.05) reductions in cell viability	significant (two-tailed t-test, p<0.05) reductions in cell viability	–
COc1ccc(C[C@H](N)C(=O)N[C@H]2[C@@H](O)[C@H](n3cnc4c(N(C)C)ncnc43)O[C@@H]2CO)cc1 [puromycin]	–	–	uniform cell death across the cell line mixture	–	–	–	–
C#Cc1cccc(Nc2ncnc3cc(OCCOC)c(OCCOC)cc23)c1 [erlotinib]	–	–	selective and dose-dependent decrease of four EGFR-mutant cell lines	–	–	–	sensitivity of EGFR-mutant lines compared to EGFR wild-type lines ([4]; did not reach statistical significance): trend towards increased sensitivity; representation of the detectable 19 wt-EGFR lines [7]: mostly unchanged or increased in representation; sensitivity of EGFR-mutant lines compared to EGFR wild-type lines ([5]; CTG, did not reach statistical significance): trend towards increased sensitivity; sensitivity of HCC2935 among the 4 EGFR-mutant lines in vitro ([3]; HCC2935, FIG. 1b): least sensitive; sensitivity of EGFR-mutant lines compared to EGFR wild-type lines ([6]; OPTICAL, did not reach statistical significance): trend towards increased sensitivity
